In patent publication EP0457326A1, “Antiviral agents” (SYNTEX (U.S.A.) INC., priority 1990, dated 1991):
Read-outs that look alike come from different tables or passages of the source.

Legend:
[1] = Cytotoxicity in uninfected A301 cells; assay type: cell-based; conditions: human; uninfected A301 cells with sample dilutions, without virus; read-out: Cell Toxicity Partial
Protocol: (§1) A301 (Alex) cells are pre-infected with a constant amount of HIV (LAV Strain) for three hours at 37°C. […] Unless mentioned the highest concentration is 200 mM. The test plates are incubated in CO₂ at 37°C for seven days (incubation time depends on virus pool titer) with a partial medium/sample change on day four of the incubation period. Uninfected A301 cells with sample dilutions, but without virus, are used to evaluate cytotoxicity.

Uninfected A301 cells = experiment: Cytotoxicity in uninfected A301 cells; assay type: cell-based; conditions: uninfected A301 cells with sample dilutions, without virus
Protocol: as §1

HIV (LAV Strain) = experiment: Antiviral activity in HIV-infected A301 (Alex) cells, read out by reverse transcriptase level; assay type: cell-based; conditions: Human immunodeficiency virus 1, 168 h
Protocol: This procedure is a modification of a procedure initially described by Chen et al., Biochemical Pharmacology, 36 (24), 4361-4362 (1987).
A301 (Alex) cells are pre-infected with a constant amount of HIV (LAV Strain) for three hours at 37°C. Test compounds and AZT (control) are added to the infected cells in two, three or five-fold dilutions, diluted out four places for screening and eight places for confirmation in 96 well plates. Unless mentioned the highest concentration is […]. The test plates are incubated in CO₂ at 37°C for seven days (incubation time depends on virus pool titer) with a partial medium/sample change on day four of the incubation period. Uninfected A301 cells with sample dilutions, but without virus, are used to evaluate cytotoxicity.
Reverse transcriptase levels are assayed at the end of the incubation period as follows, to determine if antiviral activity is present.
[…] of medium from the HIV infected Alex cells is added to […] of 3.2% Triton X-100. This solution is incubeted for 30 minutes at 37°C, then […] of 4X assay mix is added to it. The 4X assay mix contains [³H]TTP, poly(A).oligo(dT), potassium chloride, magnesium chloride, dithiothreitol, and Tris-HCl buffer, pH8.0. […] The radioactivity remaining on the 3MM paper is quantitated by scintillation counter, and corresponds to reverse transcriptase level.

HIV = conditions: prior art statement; cited from earlier work
[2] = prior art statement; cited from earlier work
[3] = preliminary results of Biochemical Pharmacology 38, 869-74 (1989); cited from earlier work

SMILES	MCC at 168 h [1] [mM]	Cell Toxicity Complete (Uninfected A301 cells) [µM]	antiviral activity [3]	other results
[N-]=[N+]=N[C@]1(CO)O[C@@H](n2cc(Cl)c(=O)[nH]c2=O)C[C@@H]1O [A, 1-(4-azido-2-deoxy-β-D-erythro-pentofuranosyl)-5-chloro-2,4-dioxopyrimidine]	1	>1000		EC50 (HIV (LAV Strain); A301 (Alex) cells pre-infected with HIV (LAV Strain), seven days incubation, reverse transcriptase level, read-out: EC50): 56 nM
Cc1cn([C@H]2C[C@H](N=[N+]=[N-])[C@@H](CO)O2)c(=O)[nH]c1=O [control, 3'-azidothymidine]	> 0.04	>40		EC50 (HIV (LAV Strain)): 5 nM
[N-]=[N+]=N[C@]1(CO)O[C@@H](n2ccc(N)nc2=O)[C@H](O)[C@@H]1O [4'-azidocytidine]				anti-HIV activity (HIV): devoid of anti-HIV activity; cytotoxicity [2]: cytotoxic
O=c1[nH]c(=O)n([C@H]2C[C@H](F)[C@@H](CO)O2)cc1Cl [5-chloro-substituted-3'-fluoro-2',3'-dideoxyuridine]			potent antiviral activity	
[N-]=[N+]=N[C@H]1C[C@H](n2cc(Cl)c(=O)[nH]c2=O)O[C@@H]1CO [5-chloro-substituted-3'-azido-2',3'-dideoxyuridine]			potent antiviral activity	
